Measurements taken from publication PMC6828813, “Biochemical characterisation of four rhamnosidases from thermophilic bacteria of the genera Thermotoga, Caldicellulosiruptor and Thermoclostridium” (Scientific Reports, 2019).
One block for each molecule: values may come before it.

What was measured:
Ts_Ram106B [1] = target: T1, Ts_Ram106B (Thermoclostridium stercorarium, UniProt L7VK28); assay: product inhibition of pNPR hydrolysis, pNP absorbance at […] nm; format: biochemical; conditions: read-out: Ki^b, α^b (mM rhamnose)
T1 construct: gene Cst_c00400

Cb_Ram106B [2] = target: T2, Cb_Ram106B (Caldicellulosiruptor bescii, UniProt B9MP87); assay: as above; format: biochemical; conditions: read-out: IC50 (at Km or Kprime)
T2 construct: gene Athe_2581

Tm_Ram106B [3] = target: T3, Tm_Ram106B (Thermotoga maritima, UniProt Q9X0G3); assay: as above; format: biochemical; conditions: read-out: Ki^b, α^b (mM rhamnose)
T3 construct: gene TM_1074

Tn_Ram106B [4] = target: T4, Tn_Ram106B (Thermotoga neapolitana, UniProt B9K9N8); assay: as above; format: biochemical; conditions: read-out: Ki^b, α^b (mM rhamnose)
T4 construct: gene CTN_1495

Tm_Ram106B [5] = target: T3, Tm_Ram106B; assay: as above; format: biochemical; conditions: read-out: IC50 (at Km or Kprime)
Ts_Ram106B [6] = target: T1, Ts_Ram106B; assay: as above; format: biochemical; conditions: read-out: IC50 (at Km or Kprime)
Tn_Ram106B [7] = target: T4, Tn_Ram106B; assay: as above; format: biochemical; conditions: read-out: IC50 (at Km or Kprime)
Cb_Ram106B [8] = target: T2, Cb_Ram106B; assay: pNP release, absorbance at […] nm, Hill fit; format: biochemical; conditions: Kprime = Khalf^h, Hill coefficient h = 1.64 ± 0.20; 1 mM CoCl2, 100 mM MOPS pH 7 (RT), 70 °C
purified protein [9] = substrate: C[C@@H]1O[C@@H](Oc2ccc([N+](=O)[O-])cc2)[C@H](O)[C@H](O)[C@H]1O; assay: purified protein; format: biochemical, Thermoclostridium stercorarium; conditions: 1 mM CoCl2, 100 mM MOPS pH 7 (RT), 55 °C
purified protein [10] = substrate: C[C@@H]1O[C@@H](Oc2ccc([N+](=O)[O-])cc2)[C@H](O)[C@H](O)[C@H]1O; assay: purified protein; format: biochemical, Thermotoga neapolitana; conditions: 1 mM CoCl2, 100 mM MOPS pH 7 (RT), 80 °C
purified protein [11] = substrate: C[C@@H]1O[C@@H](Oc2ccc([N+](=O)[O-])cc2)[C@H](O)[C@H](O)[C@H]1O; assay: purified protein; format: biochemical, Thermotoga maritima; conditions: 1 mM CoCl2, 100 mM MOPS pH 7 (RT), 80 °C

T2 sequence (B9MP87 entry or part of it): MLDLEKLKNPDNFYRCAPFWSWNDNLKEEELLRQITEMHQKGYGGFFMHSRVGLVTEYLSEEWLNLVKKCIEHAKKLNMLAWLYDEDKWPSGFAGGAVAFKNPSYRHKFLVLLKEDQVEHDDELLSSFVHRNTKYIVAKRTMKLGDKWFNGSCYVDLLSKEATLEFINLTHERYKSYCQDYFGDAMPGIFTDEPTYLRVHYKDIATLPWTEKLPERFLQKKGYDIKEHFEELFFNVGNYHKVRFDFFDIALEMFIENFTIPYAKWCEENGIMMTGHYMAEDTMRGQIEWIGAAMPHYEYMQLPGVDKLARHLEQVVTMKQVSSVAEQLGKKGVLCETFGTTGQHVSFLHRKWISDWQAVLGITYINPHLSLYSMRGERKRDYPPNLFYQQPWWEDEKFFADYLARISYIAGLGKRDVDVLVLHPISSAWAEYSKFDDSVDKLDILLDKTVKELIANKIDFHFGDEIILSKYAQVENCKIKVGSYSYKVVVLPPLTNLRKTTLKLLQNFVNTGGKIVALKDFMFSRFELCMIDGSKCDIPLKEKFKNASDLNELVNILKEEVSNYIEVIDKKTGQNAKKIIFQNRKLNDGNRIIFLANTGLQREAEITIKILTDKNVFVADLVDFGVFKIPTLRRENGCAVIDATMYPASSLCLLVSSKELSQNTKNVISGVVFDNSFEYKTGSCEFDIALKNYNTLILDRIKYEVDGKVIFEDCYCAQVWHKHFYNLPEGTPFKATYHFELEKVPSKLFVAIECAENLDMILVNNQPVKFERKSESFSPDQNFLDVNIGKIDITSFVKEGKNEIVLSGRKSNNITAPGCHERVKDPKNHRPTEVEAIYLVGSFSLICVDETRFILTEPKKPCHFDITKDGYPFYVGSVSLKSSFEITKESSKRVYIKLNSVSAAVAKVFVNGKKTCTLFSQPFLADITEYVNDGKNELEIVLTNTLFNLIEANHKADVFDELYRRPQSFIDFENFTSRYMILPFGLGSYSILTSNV

Ki (Ts_Ram106B [1]): 4.94 ± 0.75 mM
IC50 (Cb_Ram106B [2]): 5.5 mM
Ki (Tm_Ram106B [3]): 2.37 ± 0.13 mM
Ki (Tn_Ram106B [4]): 5.5 ± 1.01 mM
IC50 (Tm_Ram106B [5]): 4.9 mM
IC50 (Ts_Ram106B [6]): 8.3 mM
IC50 (Tn_Ram106B [7]): 6.5 mM
Molecule: C[C@@H]1O[C@@H](O)[C@H](O)[C@H](O)[C@H]1O [rhamnose]

Km or Kprime, h^b,c (Cb_Ram106B [8]): 1290 ± 230 µM
Molecule: C[C@@H]1O[C@@H](Oc2ccc([N+](=O)[O-])cc2)[C@H](O)[C@H](O)[C@H]1O [pNPR, para-nitrophenyl-α-L-rhamnopyranoside]

B1: Ts_Ram106B (Thermoclostridium stercorarium subsp. stercorarium DSM 8532) (protein)
chain: MFFKNSREEFDESLFRNPTSEYRCAPFWAWNKKLDWEDMERHIEIFKEMGMGGFHIHSRIGLNTPYLSDEFLDYVKKCNAKAKELGMLTWLYDEDKWPSGFGGGFVTKDHNFRSRYLLFSPFYHQSGYYERHIPRENRLGIDGYLSLIAEYKVVLKNGYLSSYKRIESGDNDSAEGETWYAYRVISGDLPWFNNQAYVDTLNKKAVEKFIEVTHEKYFEILGGEFSKSVPAVFTDEPQFVLKQNLPEPDSRQEVGIPYTDLFEESFRQRFGCSFLDSLPEIFWELEGGKFSRIRYWYHEHIAELFASSFADTVGRWCREHNLMLTGHMMAESTLESQTRALGEAMRSYRSFDLPGVDILANKYEYSTVKQAQSVARQFGKAGVLSELYGVTNWDFDFRGHKLQGDWQAAMGVSVRVPHLSWLGMGGESKRDYPAPVDYHSPWYKKYHIIEDHFSRVNVCMTRGVPCVNIAVIHPIESYWLLWGPDSQTKQKRLKLQQEFESIIDWLLFSNLDFDFIAESMVKELYRGSGNRHTQFGDMKYEVLIVPELITIRSETVKMLINHLENGGKVIILGNLPKIIDGDSDRKFDIECLGECVINNSKYDLLDALEPFRQIDIVNRDSSRNENYLYQLRDEAECKWLFIAPGKPVEALKLPEEKVLTVKVRGSYEVWRYDTFTGEKQKIQARGKDGWTYFEQTAYEHDSFLYRLLKTGTNDTTEKSVSSGVGRQVNKGVKYIKYLNGPWEYRLSEKNVLLLDMARYSLDNGEISEREEVLRIDDKIRTKLGYPLRTDSFPQPWLSPAEAECPHTVKLYFEIESETDVHEAELAFEGKGVTAEWNNVAVTDRADGFFIDKCFNVMKLPGIKKGVNQLVLTVPFGEKTDLEWCFITGNFGTCVKGDKVIITNPPERLFFGDVTRQGLSFYGGNITYIVNIDVPEGEMTVEIPQYRGALVEVALDNAKKGDIIFSPYRLNLGYVSQGEHTIEITLYGNRFNMFGQLHNCNRVEKYYGPNTWRTKGNAFAYEYQLREFGIIAAPLIYIE
K0.5 (purified protein [9]): 1.90 ± 0.18 mM
kcat (purified protein [9]): 14.3 ± 0.5 s⁻¹

B2: Tn_Ram106B (Thermotoga neapolitana DSM 4359) (protein)
chain: MNLKDLENPGVWYRPAPFWSWNDKLCEEELLRQIDEMCEKGYGGFFMHSRVGLVTEYLSDEWMALVKRCAEHARKLGMLAWLYDEDKWPSGFAGGIVPLESDEYRHRFLVLLKKEQIEPGDEILKRIERGNEELFVVKRTMKLGDPWFNGTCYVDLLSKKVTEAFIRSTHEKYRKVCGEFFGSSIPGIFTDEPTYLRVHYPEIPTLPWTDRFPEEFLKRKGYDIREHFEELFFNTKDYMKVRYDFFDVATELFIENFTIPYAKWCEENGISMTGHYMAEDTLRGQVEWIGAAMPHYEYMQIPGVDKLARHLEQVITIKQVSSVAEQLRKKWVLCETFGTTGQHVSFLHRKWIADWQAVLGITYINPHLSLYSMRGERKRDYPPNLFYQQPWWKNEKRFSDYLARLNYLMTQGKREVKVLMIHPITSAWCVYSKFDDEIDKLNESFDRTVKELVSNKIDFHFGDETILSKHGRVSGEKLVVGNCEYDIVLVPPLLNLRRSTVDLLNEFSKNGGKILVLKDGNFFPERVEGRKEKPEFLKRARVFEDLQGLIDSLRDVAAVEVIDKKTGKNAKSVIAQKRLLENGSYIIFLANTDINREVHCQLNLKEEKRHIYAIDIFDFAVVEFSEREFTMHPASSLLIWVTDEEIPSQRRSVISTGVTLKREFELEMAFSEFETEMNGFNVLPVDRVDMFEADGKVFRDEYVSKIWYEFYRLPEGTPFGVVYSFEIREKPEKLFLVVECAENLDRITVNGHEAVFKKKGCTFTEEECFLDVNFGKMDITELVQVGKNIVVLEGKKSNNITGPGCHERVKNPENHRPTEVETIYLVGKFSLVNVDETKYVIDAPKTPDHKDITRSGYPFYVGSFTLRKTFEMKKDPKRRYFLKLNSVRAASVEVFLNEKFVGSLFWEPFMVEITDNLHDGKNELKLVLTNTLFNLIEANHKADVLEETFRRPWSFIDFEHHTDRYILLPFGLENAAVLSSFSP
K0.5 (purified protein [10]): 1.47 ± 0.14 mM
kcat (purified protein [10]): 146.8 ± 6.1 s⁻¹

B3: Tm_Ram106B (Thermotoga maritima MSB8) (protein)
chain: MNLKDLENPGVWYRPAPFWSWNDKLCEEELLRQIDEMYEKGYGGFFMHSRVGLVTEYLSEEWMRLVRSCAEHARKLGMLAWLYDEDKWPSGFAGGIVPLEKPEHRHKYLTLLKKDQIKPEDEILKKIERDGEEFYVVKRVMKLGDPWFNGTCYVDLLSRETTEAFLRSTHERYKKSCGDLFRVSIPGIFTDEPTYLRVHHPKETTLPWTERFPEEFLRRKGYDIRDHLEELFFNVKDYMKVRYDFFDVATSLFIENFTIPYAKWCEENGIFMTGHYMAEDTLRGQVEWIGAAMPHYEYMQIPGIDKLARHLEQVVTIKQVSSAAEQLGKKWVLCETFGTTGQHVSFLHRKWIADWQAVLGVTYINPHLSLYSMRGERKRDYPPNLFYQQPWWKNERFLSDYFARLNHIVTQGKREVKVLMIHPISSAWCVYSKFDDEIDKLNELFDTITKELVANKIDFHFGDEMILSKHGRVKEAKLRVGEYEYEVVVLPPLLNLKSSTVELLNSLAENGGKVFVLKDFRYGRFFPERVEGKKGRIEFLKKARVFETLEDLIEELKPFFSVDVLDTKTKENAKAVIAQKRVLEDGSYLLFLANTDIDREVHCHLELKEKRKHTYAIDLFNFKLVELKENEFVMFPASSVCIWVTDEEVPAEDEKVVSTGVLLEKEFDFETALNDFEVKMNSFNVLPVDRVEYFEAGGRVFRNEFVSKIWYEFYRLPDGTPFRVEYSFEVRKKPQKLFLVVECAENLDRITVNGREVRYERKSCIFNEEQNFLDVNFGKMEITDLVREGKNTVVLEGRKENNITGPGCHTRVKDPENHRPTEVETIYLVGDFSLVNVDETRYVIDAPKIPDHRDITRDGYPFYVGSFTLKKIFECKKDPGKRYFLKLNGVEAASVEVILNGKFLGVLFWRPFMIDITDALRNGKNELQLVLTNTLFNLIEANHKADVLEETFRRPKSFIDFEHHTDRYILLPFGLENVAVLSSSSR
K0.5 (purified protein [11]): 1.94 ± 0.20 mM
kcat (purified protein [11]): 217.8 ± 10.1 s⁻¹
